The values below come from patent publication US7771977B2, “Alkane polyol dehydrogenase” (National University Corporation Nara Institute of Science …, priority 2006, dated 2010).

The subject of data set [1] is Pichia ofunaensis AKU4328 cells. The data set can be described thus: Glycerol dehydrogenation activity of glycerol-induced Pichia ofunaensis cells. In kind it is biochemical. From the text:
Pichia ofunaensis AKU4328 was pre-cultured in medium containing 4 g/L of ammonium chloride, 1 g/L of phosphoric acid 2 hydrogen 1 potassium, 1 g/L of phosphoric acid 1 hydrogen 2 potassium, 0.5 g/L of magnesium sulfate 7 hydrate, 1 g/L of yeast extract, and 1% glucose. Ten hours after the initiation of the main culture in induction medium consisting of a basal medium with 1% glycerol, the cells were harvested. Since the specific activity of glycerol was 3.6 U/mg (protein), it was confirmed that the same protein as the purified enzyme obtained in Example 1 was expressed by 7%.
In relation to the measurement of the enzyme activity, a reaction mixture containing a […] ammonium chloride/ammonia buffer (pH 9.0), 100 mM glycerol, 2.0 mM NAD^+ and an enzyme solution was subjected to a reaction at 25° C.; subsequently, the change, due to NADH formation, of absorbance (molecular absorption coefficient 6,220 M^−1 ·cm^−1) at 340 nm was measured. 1 U refers to the amount of enzyme that catalyzes the formation of 1 μmol of NADH per minute. […]
The activity at this time was measured by causing a reaction mixture containing a 100 mM ammonium chloride/ammonia buffer (pH 9.0), 100 mM glycerol, 2.0 mM NAD^+ and an enzyme solution to react at 25° C., then observing the change, due to NADH formation, of absorbance (molecular absorption coefficient 6,220 M^−1·cm^−1) at 340 nm. […]

Data set [2] concerns alkane polyol dehydrogenase (purified enzyme). In kind it is biochemical, Pichia ofunaensis. The following applies: purified enzyme; substrate 100 mM; 2 mM NAD+; pH 8.0; 25° C. On the procedure: The reaction solutions were prepared using plural substrates with varied concentrations. Each solution contained a substrate, 2 mM NAD^+, and an enzyme, and was allowed to react in a 100 mM potassium phosphate buffer solution (pH 8.0) at 25° C. Then, changes in absorbance (molar absorption coefficient 6,220 M^−1·cm^−1) at 340 nm due to the NADH formation were measured. 1 U is defined as an enzyme amount for catalyzing 1 μmol NADH formation per minute.
The alkane polyol dehydrogenase obtained in Example 1 was utilized to measure the enzyme activities in the following manner.
1 U was defined as the amount of enzyme that catalyzes the formation of 1 μmol of NADH per minute.
Measurement was performed in the same manner as in the activity measurements described earlier in 4-1.
Such activity was measured by causing a reaction mixture containing 5 mM (R)-1,2-octanediol, 2 mM NAD^+ and enzyme to react in a 100 mM potassium phosphate buffer solution (pH 8.0) at 25° C., then observing the change, due to NADH formation, of absorbance (molecular absorption coefficient 6,220 M^−1 ·cm^−1) at 340 nm. 1 U was defined as the amount of enzyme that catalyzes the formation of 1 μmol of NADH per minute.

Data set [3] is described as follows: Enzyme activity of purification fractions with 100 mM glycerol. In kind it is biochemical, Pichia ofunaensis. The conditions noted are these: 2 mM NAD+, pH 8.0, 25° C., purification step. As for the experimental part:
The entire purification process was performed at 4° C., unless otherwise indicated. The cells (20 g wet cell weight) prepared as above in 1-1, were suspended in buffer solution A (100 mM potassium phosphate buffer solution (pH 7.0) and 1 mM dithiothreitol (hereinafter simply referred to as DTT)). The resulting suspension was mixed with 100 ml of glass beads, and disrupted with a bead beater (produced by BioSpec, Bartlesville, USA).
The obtained cell extract was allowed to adsorb to a DEAE-cellulose column (diameter 4.0 cm×height 3.5 cm, produced by Wako Pure Chemical Ind. Ltd., Osaka) that was pre-equilibrated with buffer solution A. Thereafter, the gradient of 0-1 M potassium chloride was applied to buffer solution A to elute protein at a flow rate of 1 ml/min.
The eluted active fractions were collected, and dialyzed against buffer solution A containing 40% saturated ammonium sulfate. […]
In connection with the enzyme activity, a reaction mixture containing 100 mM glycerol, 2 mM NAD^+ and enzyme was allowed to react in a 100 mM potassium phosphate buffer solution (pH 8.0) at 25° C.; subsequently, the change, due to NADH formation, of absorbance (molar absorption coefficient 6,220 M^−1·cm^−1) at 340 nm was measured and analyzed. […]

Regarding `OCC(O)CO` [Glycerol], the “specific activity of the cells against glycerol” value in data set [1] (1% glycerol induction, 100 mM glycerol, 2.0 mM NAD+, pH 9.0, 25° C.) is given as 3.6 U/mg (protein). Moreover, the “glycerol dehydrogenation activity per 1 kg of wet cell weight” value in data set [1] (per 1 kg wet cell weight) is listed as 1,300,000 U. In addition, in data set [2], the “Oxidative Activity” value worked out at 39.1 U/mg.

B1: Superdex 200: purified alkane polyol dehydrogenase of Pichia ofunaensis (SEQ ID NO: 1) after Superdex 200 gel filtration (protein, listed as Pichia ofunaensis)
chain: MKGLLYYKTGDIRYSEDVEEPEILSSHDVKIRVKFCGICGTDLKEYTYEGGPLFLPKPGSSDKISGLELPLCPGHEFCGVVEEVGESVTRVKPGDRVAVEATTHCSDAVHYGVHDMELCVACKNGSPNCCTHLSFCGLGGASGGFAEKVVYGEEHMLKLPDSIPFDIGALIEPLAVAWHAVECAKFKPGSTALVLGGGPIGLATILALQGHQAGRIVCSEPACIRREYAAKFGAEVFDPSQHDDVIHELKALLPENGGFDASFDCSGVPQTFTTSIEALAPGGMAVNVAIWGDHAIDFGAMCLTYQEKTCTGSMCYTVKDFEEVINALDKGLISISKARLMITGKVNLKDGVELGFKQLIEHKETNIKILVTPDEV
Consider B1, for which the “Specific Activity” value in data set [3] came out at 51 U/mg.
